Experiments:
Experiment in all cases: relative viability (nuclei count vs DMSO), 5 days (fraction); higher = more cells survive
PAC-1 = compound: C=CCc1cccc(/C=N/NC(=O)CN2CCN(Cc3ccccc3)CC2)c1O [PAC-1]
Outline: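 Viability was read as treated-well nuclei divided by vehicle-well nuclei, using the median across plates. Lung cancer cell lines in 1536-well plates were kept overnight at 37 °C, pinned with five √10-spaced library-drug doses, and after 5 days were Hoechst-stained, imaged at 4× and counted in MetaXpress. Plates passed only with control CV below 25% and at least one doubling.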

BMX-IN-1 + Decitabine = compound: C=CC(=O)Nc1cc(-n2c(=O)ccc3cnc4ccc(-c5ccc(NS(C)(=O)=O)cc5)cc4c32)ccc1C [BMX-IN-1] + Nc1ncn([C@H]2C[C@H](O)[C@@H](CO)O2)c(=O)n1 [Decitabine] (partner 2 µM)
Outline: (§1)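 A single step with final 0.05% Triton X-100, 1% formaldehyde and 1 ug/ml Hoechst fixed the cells and stained nuclei 5 days after treatment. Lung cancer cell lines in 1536-well plates had been treated by pin tool the day after seeding with one drug alone or a fixed anchor-drug dose plus five library-drug doses (not always all listed) in √10 steps, and nuclei were counted on 4× images. Relative viability is the ratio of nuclei in treated wells to nuclei in vehicle wells, taken as the median of duplicate plates.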

PAC-1 + Navitoclax = compound: C=CCc1cccc(/C=N/NC(=O)CN2CCN(Cc3ccccc3)CC2)c1O [PAC-1] + CC1(C)CCC(c2ccc(Cl)cc2)=C(CN2CCN(c3ccc(C(=O)NS(=O)(=O)c4ccc(N[C@H](CCN5CCOCC5)CSc5ccccc5)c(S(=O)(=O)C(F)(F)F)c4)cc3)CC2)C1 [Navitoclax] (partner 0.5 µM)
Outline: as §1

PAC-1 + Luminespib = compound: C=CCc1cccc(/C=N/NC(=O)CN2CCN(Cc3ccccc3)CC2)c1O [PAC-1] + CCNC(=O)c1noc(-c2cc(C(C)C)c(O)cc2O)c1-c1ccc(CN2CCOCC2)cc1 [Luminespib] (partner 0.01 µM)
Outline: as §1

PAC-1 + Decitabine = compound: C=CCc1cccc(/C=N/NC(=O)CN2CCN(Cc3ccccc3)CC2)c1O [PAC-1] + Nc1ncn([C@H]2C[C@H](O)[C@@H](CO)O2)c(=O)n1 [Decitabine] (partner 2 µM)
Outline: as §1

SK-MES-1
relative viability (PAC-1; 0.02 µM): 0.974 | relative viability (PAC-1; 0.06325 µM): 0.987 | relative viability (PAC-1; 0.2 µM): 0.94 | relative viability (PAC-1; 2 µM): 1.02 | relative viability (BMX-IN-1 + Decitabine; first compound 0.02 µM): 0.398 | relative viability (BMX-IN-1 + Decitabine; first compound 0.2 µM): 0.432 | relative viability (BMX-IN-1 + Decitabine; first compound 0.6325 µM): 0.425 | relative viability (BMX-IN-1 + Decitabine; first compound 2 µM): 0.637 | relative viability (PAC-1 + Navitoclax; first compound 0.02 µM): 1.09 | relative viability (PAC-1 + Navitoclax; first compound 0.06325 µM): 1.3 | relative viability (PAC-1 + Navitoclax; first compound 0.2 µM): 1.19 | relative viability (PAC-1 + Navitoclax; first compound 2 µM): 1.21 | relative viability (PAC-1 + Luminespib; first compound 0.02 µM): 0.723 | relative viability (PAC-1 + Luminespib; first compound 0.06325 µM): 0.805 | relative viability (PAC-1 + Luminespib; first compound 0.2 µM): 0.726 | relative viability (PAC-1 + Luminespib; first compound 2 µM): 0.56 | relative viability (PAC-1 + Decitabine; first compound 0.02 µM): 0.432 | relative viability (PAC-1 + Decitabine; first compound 0.06325 µM): 0.389 | relative viability (PAC-1 + Decitabine; first compound 0.2 µM): 0.325 | relative viability (PAC-1 + Decitabine; first compound 2 µM): 0.322

Reference: the supplement of paper PMC10307832
